The target in one test is T1, human Nox4 (Homo sapiens, UniProt Q9NPH5).
T1 construct: expressed in transfected cells; host or cells: T-REx-293 (hNOX4 T-REx-293), tetracycline-induced; membrane fraction
T1 sequence (Q9NPH5 1-578): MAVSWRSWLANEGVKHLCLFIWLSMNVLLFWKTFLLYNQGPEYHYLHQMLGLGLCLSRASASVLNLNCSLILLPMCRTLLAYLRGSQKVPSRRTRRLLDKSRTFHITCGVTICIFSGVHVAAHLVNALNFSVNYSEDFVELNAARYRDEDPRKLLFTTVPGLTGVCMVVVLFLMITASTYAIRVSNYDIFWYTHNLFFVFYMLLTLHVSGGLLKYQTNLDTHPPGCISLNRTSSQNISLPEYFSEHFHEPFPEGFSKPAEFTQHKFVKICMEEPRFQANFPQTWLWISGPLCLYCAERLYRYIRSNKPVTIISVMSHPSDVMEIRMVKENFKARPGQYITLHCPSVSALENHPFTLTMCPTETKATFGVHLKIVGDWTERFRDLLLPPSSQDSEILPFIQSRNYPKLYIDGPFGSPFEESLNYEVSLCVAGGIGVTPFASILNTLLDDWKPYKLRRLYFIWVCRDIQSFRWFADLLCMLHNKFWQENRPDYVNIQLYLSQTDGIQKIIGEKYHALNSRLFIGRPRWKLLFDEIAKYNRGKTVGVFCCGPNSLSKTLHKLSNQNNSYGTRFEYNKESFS
T1 sequence (P13498 2-195 partner limits assumed): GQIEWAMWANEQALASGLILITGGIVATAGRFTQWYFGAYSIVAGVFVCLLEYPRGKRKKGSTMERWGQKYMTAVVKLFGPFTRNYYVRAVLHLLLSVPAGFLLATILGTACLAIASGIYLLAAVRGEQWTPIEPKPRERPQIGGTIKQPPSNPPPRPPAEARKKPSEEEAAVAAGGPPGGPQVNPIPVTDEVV
The test is described as follows: ROS production by membranes expressing human Nox4, cell-free Amplex Red assay. Format: biochemical. The following applies: cell-free membranes, Amplex Red; Cheng-Prusoff; average of at least three experiments in triplicate; read-out: Ki hNox4. From the text:
(§1) The Nox4 activity of Nox4 inhibitors according to the invention may be tested for their activity in the inhibition or reduction of formation of reactive oxygen species (ROS) from oxygen in cell free assays. In order to fully characterise Nox4 inhibitors, Nox subunit-specific cell-free, membrane-based systems have been developed and specific recombinant proteins have been added to membranes heterologously over-expressing their specific iso form. Nox enzymes produce superoxide (O2.−) as primary product, however due to the high instability and reactivity of this molecule which dismutates naturally into hydrogen peroxide (H2O2), therefore, read-out techniques involving probes that do measure H2O2 were used (e.g. using Amplex Red as a probe in order to facilitate consistent and accurate measurements). The activity of the compounds is tested in the following cell free assay using the techniques described here below:
Transfected T-REx™-CHO cells (R718-07) purchased from Invitrogen and T-REx™-293 cell line expressing hNOX4 (hNOX4 T-REx™-293) (Serrander et al., 2007, Biochem. J., 406, 105-114) were cultured in […]. Both media were supplemented with 10% FBS, 2 mM glutamine, penicillin (100 U/ml) and streptomycin (100 μg/ml). Selection pressure was maintained by continuous inclusion of blasticidin (5 μg/ml), and/or G418 (0.25 mg/ml), and/or Hygromycin (0.25 mg/ml) and/or zeocin (0.025 mg/ml).
(§2) Human Nox1, Nox2, Nox4, and Nox5 expression were induced with Tetracycline (1 μg/ml) during 24 h prior to the membrane preparation Membranes from transfected cells overexpressing Nox1, Nox2, Nox4 or Nox5 were prepared as previously described in Palicz et al., 2001, J. Biol. Chem., 76, 3090-3097. After resuspension in sonication buffer (11% sucrose, 120 mM NaCl, 1 mM EGTA in PBS, pH 7.4 for Nox4- or NOX5-expressing cells) or in relax buffer (10 mM Pipes, 3 mM NaCl, 3.5 mM MgCl2, 0.1M KCl, pH 7.4), cells were broken by sonication and centrifuged (200 g, 10 min). The supernatant was layered onto a 17/40% (w/v) discontinuous sucrose gradient and centrifuged (150,000×g for 60 min). Membrane fractions were collected from the 17/40% interface and were stored at −80° C. Protein concentration was determined with the Bradford reagent.
(§3) Reactive Oxygen Species (ROS) production by membranes expressing either human Nox1, or human Nox2 or human Nox4 or human Nox5 or by xanthine/xanthine oxidase were measured using the Amplex Red (AR) method following a slightly modified version of the manufacturer's instruction manual (Invitrogen). Briefly, membranes or xanthine were incubated in PBS with Amplex Red, Horse Radish Peroxidase (HRP) and appropriated co-factors. ROS production was induced by addition of NADPH to NOX-expressing membrane or by addition of xanthine to xanthine oxidase. Non-specific signal was measured in the absence of membranes or in the absence of xanthine.
Antagonist activity of compounds was measured in the presence of increasing concentrations ranging from 1 nM to 100 μM. After an incubation of 20 min in a plate shaker and incubator (Titramax 1000, VWR) at 37° C. with weak agitation (300 rpm), ROS levels were measured for 10 min in a BMG Fluostar microplate reader with excitation and emission wavelengths of 544 nm and 590 nm respectively.
Data were analysed using Prism (GraphPad Software Inc., San Diego, Calif.). Ki values were calculated using the Cheng-Prusoff equation and represent the average of at least three individual experiments performed in triplicate (Table 1). Nox4 inhibition was compared to that measured for Simvastatin (Enzo Life Sciences, CAS Number 79902-63-9) using the method described in Example 1. Reactive Oxygen Species (ROS) production by membranes expressing human Nox4 was measured using the Amplex Red (AR).

In another test the target is T2, human Nox2 (Homo sapiens, UniProt P04839).
T2 construct: host or cells: T-REx-CHO (hNOX2 T-REx-CHO), tetracycline-induced; membrane fraction
T2 sequence (P04839 2-570 limits assumed): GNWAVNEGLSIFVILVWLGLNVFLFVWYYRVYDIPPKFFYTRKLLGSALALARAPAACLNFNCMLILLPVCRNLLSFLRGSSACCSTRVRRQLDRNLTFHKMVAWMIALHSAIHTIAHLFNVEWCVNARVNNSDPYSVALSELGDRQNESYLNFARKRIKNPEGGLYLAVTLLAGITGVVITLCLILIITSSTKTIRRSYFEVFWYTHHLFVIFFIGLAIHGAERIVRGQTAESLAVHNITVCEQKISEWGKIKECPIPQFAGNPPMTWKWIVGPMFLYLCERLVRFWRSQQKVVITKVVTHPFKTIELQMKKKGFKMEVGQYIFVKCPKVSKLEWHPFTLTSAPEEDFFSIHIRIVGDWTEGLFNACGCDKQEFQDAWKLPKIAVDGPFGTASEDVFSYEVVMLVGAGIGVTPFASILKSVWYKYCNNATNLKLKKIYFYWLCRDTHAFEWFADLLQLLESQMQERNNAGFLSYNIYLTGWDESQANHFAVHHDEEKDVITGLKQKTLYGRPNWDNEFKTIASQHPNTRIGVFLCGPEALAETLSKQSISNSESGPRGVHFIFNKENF
T2 sequence (P13498 2-195 partner limits assumed): T1 sequence (P13498 2-195 partner limits assumed)
The test is described as follows: ROS production by membranes expressing human Nox2, cell-free Amplex Red assay. In kind it is biochemical. The following applies: cell-free membranes, Amplex Red; Cheng-Prusoff; average of at least three experiments in triplicate; read-out: Ki hNox2.
Excerpt: as §1
Human Nox1 (NM_007052.4), human NOX2 (NM_000397), and human NOX5 (NM_0245052244) cDNAs were cloned into the pcDNA5/TO (Invitrogen). Human p22 (NM_000101.2) was cloned into pcDNA3.1/Zeo (+) (Invitrogen), and human NOXA1 (AY255769.1) and human NOXO1 (AB097667) were cloned into the bi-cistronic pVITRO1-neo-mcs plasmid (Invivogen).
Cells were transfected by using the FuGENE 6 method. Cells stably expressing functional human Nox1 (hNOX1 T-REx™-CHO) were obtained by co-transfecting T-REx™-CHO cells with human Nox1, human p22, human NOXA1 and human NOXO1. Cells stably expressing functional human Nox2 (hNOX2 T-REx™-CHO) were obtained by co-transfecting T-REx™-CHO cells with human nox2, human p22 and human cofactors. Cells stably expressing functional human Nox5 (hNOX5 T-REx™-CHO) were obtained by transfecting T-REx™-CHO cells with human Nox5. Co-transfected cells were selected with the appropriate antibiotics for 10 days. For the selection, hygromycin and G418 were used at 2 mg/ml and zeocin at 0.1 mg/ml. For the establishment of each stably transfected cell line, a pool of antibiotic-resistant cells was generated. Cells were cloned by limiting dilution. Several clones were established and investigated for ROS production upon tetracycline-induced hNox expression using a cellular AR assay. The expression of NOXes was done with tetracycline (1 μg/ml) during 24 h prior to the assay.
as §2, §3
Antagonist activity of compounds was measured in the presence of increasing concentrations ranging from 1 nM to 100 μM. […]

The term Ki denotes the equilibrium dissociation constant of an inhibitor or competing ligand from its target.

For `Cc1c2c(=O)n(-c3ccccc3Cl)[nH]c2cc(=O)n1Cc1cccnc1` [(15), 2-(2-chlorophenyl)-4-methyl-5-(pyridin-3-ylmethyl)-1H-pyrazolo[4,3-c]pyridine-3,6(2H,5H)-dione], the Ki came to 83 nM at human Nox4 and 907 nM at human Nox2.
In the case of `O=c1c2c(-c3ccc(Cl)cc3)n(Cc3cnccn3)c(=O)cc2[nH]n1-c1ccccc1Cl` [(16), 2-(2-chlorophenyl)-4-(4-chlorophenyl)-5-(pyrazin-2-ylmethyl)-1H-pyrazolo[4,3-c]pyridine-3,6(2H,5H)-dione], the Ki turned out to be 85 nM on human Nox4 and 720 nM at human Nox2.
The like results for `O=c1c2c(-c3ccccc3F)n(Cc3cccnc3)c(=O)cc2[nH]n1-c1ccccc1Cl` [(17), 2-(2-chlorophenyl)-4-(2-fluorophenyl)-5-(pyridin-3-ylmethyl)-1H-pyrazolo[4,3-c]pyridine-3,6(2H,5H)-dione] were, in that order, 88 nM and 602 nM.
Turning to `O=c1c2c(-c3ccc(Cl)cc3)n(Cc3ccncc3)c(=O)cc2[nH]n1-c1ccccc1Cl` [(18), 2-(2-chlorophenyl)-4-(4-chlorophenyl)-5-(pyridin-4-ylmethyl)-1H-pyrazolo[4,3-c]pyridine-3,6(2H,5H)-dione], the Ki at human Nox4 worked out at 89 nM; at human Nox2 it was 810 nM.
With `O=c1c2c(-c3ccc(Cl)cc3F)n(Cc3ccncc3)c(=O)cc2[nH]n1-c1ccccc1Cl` [(19), 4-(4-chloro-2-fluorophenyl)-2-(2-chlorophenyl)-5-(pyridin-4-ylmethyl)-1H-pyrazolo[4,3-c]pyridine-3,6(2H,5H)-dione], the Ki worked out at 91 nM at human Nox4 and 640 nM at human Nox2.
The like results for `COc1ccc(-c2c3c(=O)n(-c4ccccc4Cl)[nH]c3cc(=O)n2Cc2cccnc2)c(F)c1` [(21), 2-(2-chlorophenyl)-4-(2-fluoro-4-methoxyphenyl)-5-(pyridin-3-ylmethyl)-1H-pyrazolo[4,3-c]pyridine-3,6(2H,5H)-dione] were, in that order, 96 nM and 555 nM.
In the same order, the values of `COc1ccc(-c2c3c(=O)n(-c4ccccc4OC)[nH]c3cc(=O)n2Cc2ccn(C)n2)c(F)c1` [(22), 4-(2-fluoro-4-methoxyphenyl)-2-(2-methoxyphenyl)-5-[(1-methyl-1H-pyrazol-3-yl)methyl]-1H-pyrazolo[4,3-c]pyridine-3,6(2H,5H)-dione] are 98 nM and 925 nM.
The like results for `O=c1c2c(-c3ccc(Cl)cc3)n(Cc3cccnc3)c(=O)cc2[nH]n1-c1ccccc1Cl` [(25), 2-(2-chlorophenyl)-4-(4-chlorophenyl)-5-(pyridin-3-ylmethyl)-1H-pyrazolo[4,3-c]pyridine-3,6(2H,5H)-dione] were, in that order, 100 nM and 2180 nM.
Regarding `COc1cc(Cn2c(-c3ccc(Cl)cc3F)c3c(=O)n(-c4ccccc4Cl)[nH]c3cc2=O)ccn1` [(26), 4-(4-chloro-2-fluorophenyl)-2-(2-chlorophenyl)-5-[(2-methoxypyridin-4-yl)methyl]-1H-pyrazolo[4,3-c]pyridine-3,6(2H,5H)-dione], the Ki at human Nox4 turned out to be 105 nM; on human Nox2 it was 565 nM.
On to `COc1ccc(-c2c3c(=O)n(-c4ccccc4Cl)[nH]c3cc(=O)n2Cc2ccncc2)c(F)c1` [(27), 2-(2-chlorophenyl)-4-(2-fluoro-4-methoxyphenyl)-5-(pyridin-4-ylmethyl)-1H-pyrazolo[4,3-c]pyridine-3,6(2H,5H)-dione], for which the Ki on human Nox4 is 108 nM; on human Nox2 it was 590 nM.
Turning to `O=c1c2c(-c3ccccc3F)n(Cc3ccncc3)c(=O)cc2[nH]n1-c1ccccc1Cl` [(29), 2-(2-chlorophenyl)-4-(2-fluorophenyl)-5-(pyridin-4-ylmethyl)-1H-pyrazolo[4,3-c]pyridine-3,6(2H,5H)-dione], the Ki on human Nox4 is 111 nM; at human Nox2, 655 nM.
In the same order, the values of `Cc1c2c(=O)n(-c3ccccc3Cl)[nH]c2cc(=O)n1Cc1ccn(C)n1` [(30), 2-(2-chlorophenyl)-4-methyl-5-[(1-methyl-1H-pyrazol-3-yl)methyl]-1H-pyrazolo[4,3-c]pyridine-3,6(2H,5H)-dione] are 111 nM and 1060 nM.

For the origin of these results see US20140323500A1, “NADPH OXIDASE 4 INHIBITORS AND USE THEREOF” (GENKYOTEX SA, priority 2011, published 2014).
